Experiments:
[1] = Hardening activity of UP resin A under UV light, temperature/time curve (Table 2); details: 0.2% compound
Experimental: (§1) To measure the hardening activity, the temperature curve for the unsaturated polyester resin (UP resin) was recorded during exposure to UV light. […] To avoid heat losses during the exposure to UV light, the lid was embedded in rigid expanded polyurethane foam. The UV light source used comprised 5 fluorescent tubes (TLAK 40 W/05 from Philips) side by side, at a distance of 8.5 cm from the UP resin surface.
(§2) The hardening time HT25° C.-T.sbsb.max and the maximum hardening temperature Tmax achieved were obtained, as characteristic parameters for the hardening activity, from the recorded temperature/time curves. The hardening time is the interval in which the sample temperature increases from 25° C. to Tmax.
(§3) The Examples and Comparative Examples were carried out using the following unsaturated polyester resins:
Resin A was a 65% strength solution, in styrene, of an unsaturated polyester of maleic acid, o-phthalic acid, ethylene glycol and propylene 1,2-glycol in the molar ratio of 1:2:2.3:0.70, the solution being stabilized with 0.01% of hydroquinone.
(§4) The hardening activity of the novel compounds 1 to 16 (cf. Table 1) was compared with the properties of the following compounds: […]

[2] = Hardening activity of UP resin B under UV light, temperature/time curve (Table 2); details: 0.2% compound
Experimental: as §1, §2, §3
Resin B was a 67% strength solution, in styrene, of an unsaturated polyester of maleic acid, tetrahydrophthalic acid and diethylene glycol in the molar ratio of 1:0.5:1.5, the solution being stabilized with 0.01% of hydroquinone.
as §4

[3] = Hardening activity of UP resin C under UV light, temperature/time curve (Table 2); details: 0.2% compound
Experimental: as §1, §2, §3
Resin C was a 66% strength solution, in styrene, of an unsaturated polyester of maleic acid, o-phthalic acid and propylene 1,2-glycol in the molar ratio of 1:0.5:1.5, the solution being stabilized with 0.01% of hydroquinone.
as §4

[4] = Shelf life of UP resin B containing a photoinitiator, stored at 60° C. (Table 3); type: physicochemical; details: 0.2% initiator, dark
Experimental: (§5) To test the shelf life, 6.6 ml of each of the UP resins A, B and C (cf. Example 5) with an initiator content of 0.2% were introduced into brown sample bottles, and the closed bottles were stored at 60° C. At intervals of about 12 hours, the bottles were turned to determine whether gel particles had formed. As a measure of the shelf life, Table 3 gives the maximum storage time at which gel particles were still not observed.
(§6) In addition to the comparative compounds I, II and III, compound V below was also tested: V 2,4,6-trimethylbenzoyldiphenylphosphine oxide as described in U.S. Pat. No. 4,265,723.
(§7) The numbering scheme of the compounds in Table 3 is based on that of Table 1.

[5] = Shelf life of resins containing the compounds, overall comparison; type: physicochemical; details: Table 3, in words
Experimental: as §5, §6

[6] = Shelf life of UP resin A containing a photoinitiator, stored at 60° C. (Table 3); type: physicochemical; details: 0.2% initiator, dark
Experimental: as §5, §6, §7

[7] = Shelf life of UP resin C containing a photoinitiator, stored at 60° C. (Table 3); type: physicochemical; details: 0.2% initiator, dark
Experimental: as §5, §6, §7

[8] = Minimum exposure time for faultless reproduction of the 3% tonality on photopolymerizable printing plate (Table 7); details: 2 parts photoinitiator; UV about 3,300 μW/cm^2
Experimental: 60 parts by weight of a 1:1:1 copolyamide consisting of PA-6, PA-6.6 and PA-6.13, 30 parts by weight of ethylene glycol bis-(N-methylolacrylamide) ether, 10 parts by weight of benzenesulfonic acid N-(n-butyl)-amide, 150 parts by weight of methanol, 20 parts by weight of water, 0.02 part by weight of a chromium complex dye (CI No. 12,195), 0.3 part by weight of potassium N-nitrosocyclohexylhydroxylamine and 2 parts by weight of the photoinitiator given in Table 7 were dissolved at about 70° C. The photopolymerizable material was brought to a solids content of about 65% by distilling off part of the solvent and was then cast, at 60° C., on to a strip of steel sheet provided with an adhesive, and drying was effected in a drying oven for about 2 hours at 80° C. The resulting photopolymerizable printing plate contained a 0.5 mm thick layer with a solids content of about 95%.
Using a test negative which had, inter alia, 54 screen lines, per centimeter, of 3% tonality, the plate was exposed to a UV light intensity of about 3,300 μW/cm^2 on a flat-plate exposure unit equipped with superactinic fluorescent tubes. The unexposed parts of the plate which were protected from the UV light by the opaque image elements of the negative were then washed out in a spray washer for 5 minutes at 30° C. and under a spray pressure of 5 bar, using an ethanol/water mixture containing 80% of ethanol. The plate was thereafter dried for 6 minutes at 110° C. The minimum exposure time required for faultless reproduction of the 3% tonality was measured, and the results for various photoinitiators are summarized in Table 7.

[9] = Photopolymerization of monomer emulsion, properties of resulting polymer dispersions (Table 5)
Experimental: A monomer emulsion was prepared from 50 parts of methyl acrylate, 50 parts of ethyl acrylate, 1.3 parts of a 40% strength C15 -paraffin sulfonate, 1.3 parts of an adduct of isooctylphenol with 25 units of ethylene oxide (20% strength) and 210 parts of water in a conventional mixing unit.
This emulsion was introduced into a 1 l glass flask provided with an internal thermometer and a stirrer, and was freed from oxygen by twice evacuating the flask and gassing the emulsion with nitrogen. X parts of the photoinitiator in 6.7 parts of water were added, and the reaction vessel was then exposed for 60 minutes to light from a high pressure mercury vapor lamp of Type HQL/R 400 W from Osram, located 30 cm above the vessel. The beginning of polymerization was evident from an increase in the temperature. The amounts of photoinitiator employed and the properties of the resulting polymer dispersions are summerized in Table 5, photoinitiator 4 (cf. Table 1) being compared with photoinitiator VI (described in U.S. Pat. No. 4.257,859).

[10] = 1.7 parts X employed, 60 min exposure

Row | SMILES | hardening time HT 25°-Tmax [1] | maximum hardening temperature Tmax [1] | hardening time HT 25°-Tmax [2] | maximum hardening temperature Tmax [2] | hardening time HT 25°-Tmax [3] | maximum hardening temperature Tmax [3] | shelf life of resins compared with compounds II, III and V [5] | Shelf life [6] | further results
1 | Cc1cc(C)c(C(=O)P(=O)(O)c2ccccc2)c(C)c1 [Compound 5] | 5/38 | 118 °C | – | – | – | – | – | – | –
2 | Cc1cc(C)c(C(=O)P(=O)(O)c2ccccc2)c(C)c1 [Compound 6] | 5/53 | 115 °C | – | – | – | – | – | – | –
3 | Cc1cc(C)c(C(=O)P(=O)(O)c2ccccc2)c(C)c1 [Compound 8, Calcium bis-(2,4,6-trimethylbenzoylphenylphosphinate)] | 5/53 | 114 °C | 6/00 | 130 °C | – | – | – | – | –
4 | Cc1cc(C)c(C(=O)P(=O)(O)c2ccccc2)c(C)c1 [Compound 9] | 5/53 | 110 °C | 4/45 | 125 °C | 5/45 | 129 °C | substantially superior | 180 h | Shelf life [4]: 140 h; shelf life of resins compared with resins containing I [5]: not significantly different; Shelf life [7]: 180 h
5 | Cc1cc(C)c(C(=O)P(=O)(O)c2ccccc2)c(C)c1 [Compound 11] | 5/23 | 118 °C | 4/30 | 124 °C | 5/15 | 120 °C | substantially superior | 180 h | Shelf life [4]: 155 h; shelf life of resins compared with resins containing I [5]: not significantly different; Shelf life [7]: 204 h
6 | Cc1cc(C)c(C(=O)P(=O)(O)c2ccccc2)c(C)c1 [Compound 13] | 6/08 | 115 °C | 5/30 | 126 °C | 5/23 | 121 °C | – | – | –
7 | Cc1cc(C)c(C(=O)P(=O)(O)c2ccccc2)c(C)c1 [Compound 14] | 5/30 | 122 °C | 4/53 | 118 °C | 5/38 | 123 °C | substantially superior | 180 h | Shelf life [4]: 155 h; Minimum exposure time required for reproducing the 3% tonality [8]: 110 s; shelf life of resins compared with resins containing I [5]: not significantly different; Shelf life [7]: 204 h
8 | Cc1cc(C)c(C(=O)P(=O)(O)c2ccccc2)c(C)c1 [Compound 15] | 7/15 | 113 °C | 8/00 | 119 °C | 7/30 | 109 °C | – | – | –
9 | Cc1cc(C)c(C(=O)P(=O)(O)c2ccccc2)c(C)c1 [Compound 16] | 5/15 | 115 °C | – | – | – | – | – | – | –
10 | Cc1cc(C)c(C(=O)P(=O)(O)c2ccccc2)c(C)c1 [Compound 17] | 5/38 | 120 °C | – | – | – | – | substantially superior | 270 h | –
11 | Cc1cc(C)c(C(=O)P(=O)(O)c2ccccc2)c(C)c1 [Compound 18] | – | – | – | – | – | – | substantially superior | 270 h | –
12 | Cc1cc(C)c(C(=O)P(=O)(OC(C)C)c2ccccc2)c(C)c1 (stereo not drawn) [II, isopropyl 2,4,6-trimethylbenzoylphenylphosphinate, reference compound] | 6/45 | 107 °C | 5/15 | 128 °C | 6/08 | 120 °C | – | 140 h | Shelf life [4]: 155 h; Shelf life [7]: 120 h
13 | COC(OC)(C(=O)c1ccccc1)c1ccccc1 [III, benzil dimethyl ketal, reference compound] | 8/00 | 114 °C | 9/45 | 119 °C | 8/30 | 122 °C | – | – | Minimum exposure time required for reproducing the 3% tonality [8]: 165 s
14 | C[N+]1(CC(O)(C(=O)c2ccccc2)c2ccccc2)CCCC1 (stereo not drawn) [VI] | – | – | – | – | – | – | – | – | polymerization outcome ([9]; 0.04 parts X employed): no polymerization; Fikentscher K value [9, 10]: 146.1; Residual monomers, ethyl acrylate [9, 10]: 0.012%; Residual monomers, methyl acrylate [9, 10]: 0.036%; Solids content [9, 10]: 30.8%; initiation of photopolymerization at very low starting concentrations ([9]; very low starting concentrations, in words): no longer initiates polymerization

Reference: patent US4719297A, “Acylphosphine compounds and their use as photoinitiators” (priority 1981, dated 1988)
